Assay results taken from patent US20240336606A1 (Suzhou Zelgen Biopharmaceuticals Co., Ltd., priority 2020, published 2024).

What follows are compounds tested against T1, binding of KRAS^G12C to SOS1 (Homo sapiens, UniProt Q07889) (assay: Inhibition of the binding of KRAS^G12C to SOS1). Details: Tag1-SOS1 / Tag2-KRAS^G12C, 2 h incubation at room temperature; read-out: IC50 (nM), inhibitory activity on the binding of KRAS^G12C to SOS1.
T1 construct: Tag1 (unspecified)
T1 sequence (Q07889 1-1333): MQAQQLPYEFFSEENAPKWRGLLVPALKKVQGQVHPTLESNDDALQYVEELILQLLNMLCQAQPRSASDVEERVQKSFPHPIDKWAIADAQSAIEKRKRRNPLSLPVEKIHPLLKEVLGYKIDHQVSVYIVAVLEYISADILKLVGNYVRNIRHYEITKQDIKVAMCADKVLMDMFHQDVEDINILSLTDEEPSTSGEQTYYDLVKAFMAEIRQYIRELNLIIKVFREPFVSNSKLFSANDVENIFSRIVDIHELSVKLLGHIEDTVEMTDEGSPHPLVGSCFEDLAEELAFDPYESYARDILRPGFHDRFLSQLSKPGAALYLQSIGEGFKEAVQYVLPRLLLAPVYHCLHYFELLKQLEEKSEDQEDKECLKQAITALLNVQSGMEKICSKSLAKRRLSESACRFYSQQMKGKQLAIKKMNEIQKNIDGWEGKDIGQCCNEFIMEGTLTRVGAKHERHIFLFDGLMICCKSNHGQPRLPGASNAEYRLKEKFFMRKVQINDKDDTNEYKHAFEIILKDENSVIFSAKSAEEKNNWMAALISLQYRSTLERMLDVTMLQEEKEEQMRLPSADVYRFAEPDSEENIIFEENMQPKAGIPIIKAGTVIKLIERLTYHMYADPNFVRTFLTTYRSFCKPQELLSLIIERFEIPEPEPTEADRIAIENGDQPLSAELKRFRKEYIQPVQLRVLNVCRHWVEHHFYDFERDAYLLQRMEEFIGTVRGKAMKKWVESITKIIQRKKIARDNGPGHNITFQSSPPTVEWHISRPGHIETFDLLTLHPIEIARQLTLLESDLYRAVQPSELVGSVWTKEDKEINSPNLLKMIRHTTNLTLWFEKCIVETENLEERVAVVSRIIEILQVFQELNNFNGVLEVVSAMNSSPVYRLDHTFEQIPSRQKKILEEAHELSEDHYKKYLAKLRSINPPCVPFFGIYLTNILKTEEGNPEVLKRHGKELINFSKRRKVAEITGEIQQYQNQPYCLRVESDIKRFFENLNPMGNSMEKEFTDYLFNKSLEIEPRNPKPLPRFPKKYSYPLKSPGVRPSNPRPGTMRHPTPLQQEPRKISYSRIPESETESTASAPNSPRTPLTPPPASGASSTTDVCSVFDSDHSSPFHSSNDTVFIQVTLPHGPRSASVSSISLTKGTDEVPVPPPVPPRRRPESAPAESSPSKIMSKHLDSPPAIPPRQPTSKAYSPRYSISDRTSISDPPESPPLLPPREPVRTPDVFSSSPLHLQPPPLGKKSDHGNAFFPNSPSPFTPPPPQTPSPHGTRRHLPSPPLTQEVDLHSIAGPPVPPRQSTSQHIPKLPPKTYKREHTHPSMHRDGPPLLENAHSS
Description: • (1) Gradient dilution of the test compounds: 10 mM mother solution (dissolved in 100% DMSO) was added to a 384-well test plate, the final content of DMSO being 0.25%.
(2) 5 μL of Tag1-SOS1 solution was added to the test plate, and 5 μL of dilution buffer was added to the control group.
(3) 5 μL of Tag2-KRAS^G12C solution was added to the test plate.
(4) 10 μL of Anti-Tag1-Tb3+ and Anti-Tag2-XL665 detection solution were added to the test plate. The plate was centrifuged at 1000 rpm for 1 min and incubated at room temperature for 2 h.
(6) The IC50 values for the compounds were finally calculated using GraphPad Prism software, and a curve was fit and plotted.
The inhibitory activity of the compounds of the examples of the present invention on the binding of KRAS^G12C enzyme to SOS1 is shown in Table 1.

IC50 | SMILES
7 nM | COc1cc2nc(C)nc(N[C@H](C)c3cc(N)cc(C(F)(F)F)c3)c2cc1OCCO[C@H]1CCOC1 [Example 66, N—((R)-1-(3-Amino-5-(trifluoromethyl)phenyl)ethyl)-7-methoxy-2-methyl-6-(2-(((S)-tetrahydrofuran-3-yl)oxy)ethoxy)quinazolin-4-amine]
33 nM | COc1cc2nc(C)nc(N[C@H](C)c3cc(C(F)(F)F)cc(N)n3)c2cc1OCCOC1CC1 [Example 38, (R)—N-(1-(6-Amino-4-(trifluoromethyl)pyridin-2-yl)ethyl)-6-(2-cyclopropoxyethyloxy)-7-m ethoxy-2-methylquinazolin-4-amine]
6.2 nM | COc1cc2nc(C)nc(N[C@H](C)c3cc(N)cc(C(F)(F)F)c3)c2cc1OC[C@@H](C)OC1COC1 [Example 68, N—((R)-1-(3-Amino-5-(trifluoromethyl)phenyl)ethyl)-7-methoxy-2-methyl-6-((R)-2-(oxetan-3-yloxy)propoxy)quinazolin-4-amine]
5.4 nM | COc1cc2nc(C)nc(N[C@H](C)c3cc(N)cc(C(F)(F)F)c3)c2cc1OCC1(N(C)C)CC1 [Example 34, (R)—N-(1-(3-Amino-5-(trifluoromethyl)phenyl)ethyl)-6-((1-(dimethylamino)cyclopropyl)methoxy)-7-methoxy-2-methylquinazolin-4-amine]

Further lines, the compound ahead of its results:

SMILES | IC50
COc1cc2nc(C)nc(N[C@H](C)c3cc(N)cc(C(F)(F)F)n3)c2cc1OCCOC1(C)CCC1 [Example 73, (R)—N-(1-(4-Amino-6-(trifluoromethyl)pyridin-2-yl)ethyl)-7-methoxy-2-methyl-6-(2-(1-methylcyclobutyloxy)ethoxy)quinazolin-4-amine] | 15 nM
COc1cc2nc(C)nc(N[C@H](C)c3cccc(C(F)(F)C(C)(C)O)c3F)c2cc1OCC1(CN(C)C)CC1 [Example 12] | 8.3 nM
COc1cc2nc(C)nc(N[C@H](C)c3cccc(C(F)(F)C(C)(C)O)c3F)c2cc1OC[C@@H]1CNCCO1 [Example 24] | 7.7 nM
COc1cc2nc(C)nc(N[C@H](C)c3cccc(C(F)(F)C(C)(C)O)c3F)c2cc1OC[C@@H]1COCCO1 [Example 26, 1-(3-((R)-1-((6-(((S)-1,4-Dioxan-2-yl)methoxy)-7-methoxy-2-methylquinazolin-4-yl)amino)ethyl)-2-fluorophenyl)-1,1-difluoro-2-methylpropan-2-ol] | 9.2 nM
COc1cc2nc(C)nc(N[C@H](C)c3cc(N)cc(C(F)(F)F)c3)c2cc1OCCOC1CCC1 [Example 49, (R)—N-(1-(3-Amino-5-(trifluoromethyl)phenyl)ethyl)-6-(2-cyclobutoxyethoxy)-7-methoxy-2-methylquinazolin-4-amine] | 4.6 nM
COc1cc2nc(C)nc(N[C@H](C)c3cc(N)cc(C(F)(F)F)c3)c2cc1OCCN(C)CC1CC(F)(F)C1 [Example 22, (R)—N-(1-(3-amino-5-(trifluoromethyl)phenyl)ethyl)-6-(2-(((3,3-difluorocyclobutyl)methyl)(methyl)amino)ethoxy)-7-methoxy-2-methylquinazolin-4-amine] | 7 nM
COc1cc2nc(C)nc(N[C@H](C)c3cc(N)cc(C(F)(F)F)c3)c2cc1OCCO[C@@H]1CCOC1 [Example 67, N—((R)-1-(3-Amino-5-(trifluoromethyl)phenyl)ethyl)-7-methoxy-2-methyl-6-(2-(((R)-tetrahydrofuran-3-yl)oxy)ethoxy)quinazolin-4-amine] | 4.2 nM
COc1cc2nc(C)nc(N[C@H](C)c3cc(N)cc(C(F)(F)F)c3)c2cc1OCC1(CN2CCOCC2)CC1 [Example 15, (R)—N-(1-(3-amino-5-(trifluoromethyl)phenyl)ethyl)-7-methoxy-2-methyl-6-((1-(morpholinylmethyl)cyclopropyl)methoxy)quinazolin-4-amine] | 6.9 nM
COc1cc2nc(C)nc(N[C@H](C)c3cc(N)cc(C(F)(F)F)c3)c2cc1OCCOCC1CC1 [Example 58, (R)—N-(1-(3-Amino-5-(trifluoromethyl)phenyl)ethyl)-6-(2-(cyclopropylmethoxy)ethoxy)-7-methoxy-2-methylquinazolin-4-amine] | 5.1 nM
